Results as given in ChEMBL document CHEMBL3045009, “Synthesis and Biological Activity of the Functional Derivatives of 3- and 4-(Dimethyl-aminomethyl)-1,2-dithiolanes” (1992).

Experiments:
Assay type in all cases: functional
Tetranychus urticae = test: Acaricidal activity against Tetranychus urticae (two-spotted spider mite) assessed as mortality at 500 ppm; conditions: for mortality at 500 ppm: Tetranychus urticae
Chilo suppressalis [1] = test: Insecticidal activity against Chilo suppressalis (rice stem borer) assessed as mortality at 50 ug/g administered as topical application
Spodoptera litura = test: Insecticidal activity against Spodoptera litura assessed as mortality at 500 ppm; conditions: for mortality at 500 ppm: Spodoptera litura
Nilaparvata lugens = test: Insecticidal activity against Nilaparvata lugens (brown planthopper) assessed as mortality at 50 ppm; conditions: for mortality at 50 ppm: Nilaparvata lugens
Culex pipiens molestus = test: Insecticidal activity against Culex pipiens molestus assessed as mortality at 5 ppm; conditions: for mortality at 5 ppm: Culex pipiens
Chilo suppressalis [2] = test: Insecticidal activity against Chilo suppressalis (rice stem borer) assessed as mortality compound administered as topical application

Compound | mortality at 500 ppm (Tetranychus urticae) | mortality (Chilo suppressalis [1]) | mortality at 500 ppm (Spodoptera litura) | mortality at 50 ppm (Nilaparvata lugens) | mortality at 5 ppm (Culex pipiens molestus) | LD50 (Chilo suppressalis [2]) | mortality (Tetranychus urticae) | mortality (Spodoptera litura) | mortality (Nilaparvata lugens) | mortality (Culex pipiens molestus)
CN(C)CC(CSC(=O)N(C)C)CSC(=O)N(C)C.O=C(O)C(=O)O | 100% | 20% | 0% | 30% | 0% |  |  |  |  | 
CN(C)CC(CSC(N)=O)CSC(N)=O.Cl.O | 80% | 100% | 100% | 100% | 100% | 12.6 mg/kg |  |  |  | 
CNC(=O)SCC(CSC(=O)NC)CN(C)C | 90% | 100% | 20% | 30% | 100% | 27.1 mg/kg |  |  |  | 
CC(C)NC(=O)SCC(CSC(=O)NC(C)C)CN(C)C |  | 100% |  |  |  |  | 60% | 0% | 20% | 100%
CC(C)NC(=O)SCC(CSC(=O)NC(C)C)CN(C)C.O=C(O)C(=O)O |  | 100% | 0% |  | 100% | 30.5 mg/kg | 90% |  | 0% | 
CC(C)NC(=S)SCC(CSC(=S)NC(C)C)CN(C)C | 80% | 100% | 50% | 100% | 100% | 12.7 mg/kg |  |  |  | 
CSCCC(CN(C)C)SC (centres undefined) |  | 0% |  |  |  |  | 20% | 0% | 10% | 0%
CSCCC(CN(C)C)SC.O=C(O)C(=O)O (centres undefined) |  | 0% | 0% |  | 0% |  | 100% |  | 30% | 
CCOC(=O)CSCC(CSCC(=O)OCC)CN(C)C.O=C(O)C(=O)O | 80% | 0% | 0% | 40% | 0% |  |  |  |  | 
CN(C)CC1CCS[S+]1[O-].O=C(O)C(=O)O (centres undefined) | 100% | 100% | 0% | 100% | 100% | 7.5 mg/kg |  |  |  | 
CN(C)CC1CS[S+]([O-])C1.O=C(O)C(=O)O (centres undefined) | 100% | 100% | 70% | 100% | 0% |  |  |  |  | 
CN(C)CC(CCSS(=O)(=O)c1ccccc1)SS(=O)(=O)c1ccccc1 (centres undefined) | 100% | 100% | 0% | 30% | 100% | 11.6 mg/kg |  |  |  | 
CN(C)CC(CSS(=O)(=O)c1ccccc1)CSS(=O)(=O)c1ccccc1.O=C(O)C(=O)O | 100% | 100% | 80% | 100% | 0% |  |  |  |  | 
CN(C)C[C@@H]1CCSC(C(=O)c2ccccc2)(C(=O)c2ccccc2)S1 |  | 100% |  |  |  | 7.1 mg/kg | 100% | 10% | 90% | 40%
CN(C)C[C@@H]1CCSC(C(=O)c2ccccc2)(C(=O)c2ccccc2)S1.O.O=C(O)C(=O)O | 100% | 100% |  | 100% |  | 7.5 mg/kg |  | 0% |  | 65%
CC(=O)SCCC(CN(C)C)SC(C)=O (centres undefined) | 100% | 100% | 10% | 80% | 80% |  |  |  |  | 
CN(C)CC(CCSC(=O)c1ccccc1)SC(=O)c1ccccc1.O.O=C(O)C(=O)O (centres undefined) |  | 100% |  |  |  |  | 100% | 0% | 100% | 100%
CN(C)CC(CCSC(=O)c1ccccc1)SC(=O)c1ccccc1.Cl (centres undefined) | 100% | 100% |  | 100% | 95% |  |  | 50% |  | 
CCC(=O)SCCC(CN(C)C)SC(=O)CC.O=C(O)C(=O)O (centres undefined) | 80% | 100% | 40% | 70% | 20% |  |  |  |  | 
CCOC(=O)C1SCC(CN(C)C)CS1 (mixture of isomers) | 20% | 0% | 0% | 90% | 0% |  |  |  |  | 
CN(C)C(CSS(=O)(=O)c1ccccc1)CSS(=O)(=O)c1ccccc1 [BENSULTAP] |  |  |  |  |  | 3.7 mg/kg |  |  |  | 
CN(C)C1CSSSC1.O=C(O)C(=O)O [THIOCYCLAM HYDROGEN OXALATE] | 80% | 100% | 20% | 100% | 100% |  |  |  |  | 
